Columns and labels:
[1] = molecular target: T1, ScHxt10 (Saccharomyces cerevisiae, UniProt P43581); assay: growth complementation of transporter-null L-arabinose-utilizing yeast; assay type: cell-based; conditions: 20 g/L L-arabinose plates, 30°C, 10 days, strain TSY01; growth read-out only
T1 construct: gene HXT10; HXT10 under shortened HXT7 promoter on 2-micron plasmid pTHHXT10, expressed in hexose-transporterless strain TSY01
T1 sequence (P43581 1-546): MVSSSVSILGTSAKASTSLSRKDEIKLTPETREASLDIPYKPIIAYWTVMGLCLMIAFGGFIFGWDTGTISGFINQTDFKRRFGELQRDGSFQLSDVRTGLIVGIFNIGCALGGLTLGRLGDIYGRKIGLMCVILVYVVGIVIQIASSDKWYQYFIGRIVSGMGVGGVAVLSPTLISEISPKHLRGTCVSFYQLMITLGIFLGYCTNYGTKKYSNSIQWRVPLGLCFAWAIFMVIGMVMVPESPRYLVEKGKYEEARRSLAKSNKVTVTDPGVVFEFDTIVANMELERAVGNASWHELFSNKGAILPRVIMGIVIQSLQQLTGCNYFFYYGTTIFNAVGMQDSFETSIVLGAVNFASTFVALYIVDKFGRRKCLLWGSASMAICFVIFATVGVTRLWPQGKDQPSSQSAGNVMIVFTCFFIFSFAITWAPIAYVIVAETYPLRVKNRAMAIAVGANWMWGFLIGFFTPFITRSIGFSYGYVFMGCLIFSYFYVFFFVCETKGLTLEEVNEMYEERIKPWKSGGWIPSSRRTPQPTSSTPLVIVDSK

[2] = molecular target: T2, ScHxt9 (Saccharomyces cerevisiae, UniProt P40885); assay: as above; assay type: cell-based; conditions: 20 g/L L-arabinose plates, 30°C, 10 days, strain TSY01; growth read-out only
T2 construct: gene HXT9; HXT9 under shortened HXT7 promoter on 2-micron plasmid pTHHXT9, expressed in hexose-transporterless strain TSY01
T2 sequence (P40885 1-567): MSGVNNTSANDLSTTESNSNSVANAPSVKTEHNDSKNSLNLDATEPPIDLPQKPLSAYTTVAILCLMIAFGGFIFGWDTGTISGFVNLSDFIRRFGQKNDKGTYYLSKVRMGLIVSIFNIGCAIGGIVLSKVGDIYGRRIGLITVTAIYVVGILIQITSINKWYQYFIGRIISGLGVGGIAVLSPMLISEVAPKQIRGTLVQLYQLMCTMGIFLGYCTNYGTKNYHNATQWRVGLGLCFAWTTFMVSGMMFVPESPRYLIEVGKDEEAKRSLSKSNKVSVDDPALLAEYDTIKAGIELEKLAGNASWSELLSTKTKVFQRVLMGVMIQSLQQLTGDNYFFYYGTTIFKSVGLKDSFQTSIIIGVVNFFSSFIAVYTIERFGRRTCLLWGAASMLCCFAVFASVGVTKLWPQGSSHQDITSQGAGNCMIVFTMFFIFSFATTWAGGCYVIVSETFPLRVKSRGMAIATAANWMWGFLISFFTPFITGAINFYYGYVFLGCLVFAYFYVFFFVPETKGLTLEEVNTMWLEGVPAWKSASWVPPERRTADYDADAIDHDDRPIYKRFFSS

Question: Which results are given for `OC1OC[C@H](O)[C@H](O)[C@H]1O` (stereo partly drawn) [L-arabinose]?
Answer: growth complementation of transporter-null L-arabinose-utilizing yeast [1]: Transformants expressing ScGal2, ScHxt9 and ScHxt10 could grow on the L-arabinose medium; growth complementation of transporter-null L-arabinose-utilizing yeast [2]: Transformants expressing ScGal2, ScHxt9 and ScHxt10 could grow on the L-arabinose medium

Source: paper PMC3216861, “Improving L-arabinose utilization of pentose fermenting Saccharomyces cerevisiae cells by heterologous expression of L-arabinose transporting sugar transporters” (Biotechnology for Biofuels, 2011)
